Data set [1] addresses T1, OATP1B1 (Homo sapiens, UniProt Q9Y6L6).
T1 sequence (Q9Y6L6 1-691): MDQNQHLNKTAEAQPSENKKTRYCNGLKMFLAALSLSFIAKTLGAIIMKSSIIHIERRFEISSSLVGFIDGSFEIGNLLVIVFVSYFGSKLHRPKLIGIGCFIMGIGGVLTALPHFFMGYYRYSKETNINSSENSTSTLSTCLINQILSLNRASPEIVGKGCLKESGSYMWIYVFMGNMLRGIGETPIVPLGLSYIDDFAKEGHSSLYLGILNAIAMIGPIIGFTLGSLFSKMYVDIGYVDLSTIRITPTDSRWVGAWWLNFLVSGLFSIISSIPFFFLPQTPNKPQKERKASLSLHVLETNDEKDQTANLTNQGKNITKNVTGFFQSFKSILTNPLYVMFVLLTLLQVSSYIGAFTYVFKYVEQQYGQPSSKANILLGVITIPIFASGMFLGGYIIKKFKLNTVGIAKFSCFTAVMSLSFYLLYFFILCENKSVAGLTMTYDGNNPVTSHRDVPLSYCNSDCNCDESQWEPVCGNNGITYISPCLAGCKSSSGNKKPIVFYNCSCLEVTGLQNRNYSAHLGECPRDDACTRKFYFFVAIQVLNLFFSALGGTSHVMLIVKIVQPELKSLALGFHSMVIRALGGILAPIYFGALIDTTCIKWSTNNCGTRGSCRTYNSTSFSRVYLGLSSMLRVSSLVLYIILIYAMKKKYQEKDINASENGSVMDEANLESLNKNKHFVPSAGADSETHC
As to the kind of experiment: Radioactive uptake and membrane/intracellular fractionation in cells overexpressing OATP1B1 or vector. It is filed as cell-based. Further details: expressed in transfected cells. How it is done:
For experiments seeking to directly determine if venetoclax is an OATP1B1 substrate, cells overexpressing OATP1B1 or VC were seeded in six-well plates in phenol red-free DMEM containing 10% FBS and doxycycline (1 µg/mL) for 24 h. […] Cells were then immediately lysed with 1 mL of 1 N NaOH for 4 h on an orbital shaker at room temperature to measure total radioactivity. Alternatively, cells were trypsinized with 200 µL of TrypLE (Thermo Fisher Scientific, Waltham, MA, USA) for 3–5 min, rinsed with 800 µL of ice-cold washing buffer, and ProteoExtract Native Membrane Protein Extraction Kits (EMD Millipore, Burlington, MA, USA) were used to separate membrane and intracellular fractions. Dissociated cells were then transferred to 1.5-mL Eppendorf tubes. For measurement of total radioactivity, cells were neutralized with 500 µL of 2 M HCl after 4 h. For measurement of total radioactivity in the membrane or intracellular fraction, cells were isolated following the manufacturer’s protocol, as we have reported previously; this procedure is based on a differential extraction procedure under non-denaturing conditions.

Data set [2] addresses T1, OATP1B1. The data set can be described thus: Competitive counterflow assay with 8-acetoxy-trisulfopyrene. Format: cell-based. Further details: expressed in transfected cells. How it is done:
Competitive counterflow assays were performed with 8-acetoxy-trisulfopyrene, an activatable fluorogenic probe for OATP1B1, as described previously. In brief, cells expressing a vector or OATP1B1 were seeded in 96-well opaque plates in phenol-red free DMEM media with 10% FBS and induced with doxycycline for 24 h. On the day of the experiment, the media was removed, and the cells were washed three times with warm PBS. The cells were then incubated for 20 min at 37 °C with 100 µL of 5 µM 8-acetoxypyrene-1,3,6-trisulfonate uptake buffer (ACE; 125 mM NaCl, 4.8 mM KCl, 1.2 mM CaCl2, 1.2 mM KH2PO4, […], 25 mM 2-N-morpholino), ethanesulfonic acid, and 5.6 mM glucose, with the pH adjusted to 5.5). […] The fluorescence was measured at excitation and emission wavelengths of 460 nm and 510 nm, respectively, after 20 min of incubation to control for the number of cells.
The plates were incubated for 20 min at 37 °C. In the final step, the supernatant was removed, and the cells were washed three times with 200 µL ice-cold PBS to stop the reaction. PBS was then removed and 200 µL of 0.1 N NaOH was added to each well to normalize the pH. The fluorescence was measured as described above after another 20 min incubation at room temperature. The levels of cell dye were reported as a percent of the measurement from cells containing ACE alone.

For data set [3] the following is noted: cited from earlier work.

Regarding `CC1(C)CCC(CN2CCN(c3ccc(C(=O)NS(=O)(=O)c4ccc(NCC5CCOCC5)c([N+](=O)[O-])c4)c(Oc4cnc5[nH]ccc5c4)c3)CC2)=C(c2ccc(Cl)cc2)C1` [Venetoclax], in data set [1] (0.2 µM EβG or 1 µM venetoclax, 15 min), the “Uptake in the intracellular fraction with overexpression of OATP1B1 versus vector” value is recorded as “significant increases”. In addition, the “Detectable compound associated with the membrane fraction” value in data set [1] (after correction for the intracellular fraction) is recorded as more than 96%. Further, the “Venetoclax remaining unbound (membrane-binding experiment)” value in data set [1] (in vitro, cells) is less than 3%. Moreover, the “Radioactivity in the membrane fraction relative to the probe substrate EβG” value in data set [1] (membrane fraction, 1 µM venetoclax vs 0.2 µM EβG) is more than 500 fold. In addition, the “Detected total radioactivity relative to the probe substrate EβG” value in data set [1] (whole cell lysate, cells expressing OATP1B1 or vector, 15 min) was more than 10 fold. Moreover, the “Effect on fluorescence (cell dye level) in competitive counterflow” value in data set [2] (5 µM ACE, venetoclax 200 µM, cyclosporin A 10 µM, paraformaldehyde 0.5%, 20 min) was “significantly decreased fluorescence”. Further, the “Actual unbound concentration of venetoclax in counterflow experiments” value in data set [2] (nominal concentration 200 µM) is less than 10 µM. Also, in data set [3] (at approved doses, patients), the “Variation in apparent oral clearance” value was approximately 15 fold. In addition, in data set [3] (humans), the “DDI between venetoclax and ketoconazole (increase in venetoclax exposure)” value is listed as ~ 6 fold; the “Increase in systemic exposure to venetoclax with a single dose of rifampin” value is 2 fold.
